Measurements published in ChEMBL document CHEMBL3860046, “Increasing metabolic stability via the deuterium kinetic isotope effect: An example from a proline-amide-urea aminothiazole series of phosphatidylinositol-3 kinase alpha inhibitors” (Bioorg Med Chem Lett, 2016).
Activity calls are given as the source filed them. The rule behind the calls is not given here.

Columns and labels:
[1] = (§1) Drug level in rat liver microsomes treated with (S)-N1-(5-(2-tert-butylpyrimidin-4-yl)-4-methylthiazol-2-yl)pyrrolidine-1,2-dicarboxamide at 5 uM measured after 1 hr in presence of alamethicin,uridine 5'-diphospho-glucuronic acid,glutathione,NADPH by capillary-HPLC/MS analysis; assay type: ADME
[2] = Drug level in human liver microsomes treated with (S)-N1-(5-(2-tert-butylpyrimidin-4-yl)-4-methylthiazol-2-yl)pyrrolidine-1,2-dicarboxamide at 5 uM measured after 1 hr in presence of alamethicin,uridine 5'-diphospho-glucuronic acid,glutathione,NADPH by capillary-HPLC/MS analysis; assay type: ADME
[3] = species on record: Mus musculus; settings: Harlan, Rat1, 50 mg/kg
[4] = AUC (0 to 24 hrs) in Harlan nude mouse plasma xenografted with Rat1 cells expressing myr-p110alpha at 150 mg/kg, po qd administered for 8 days measured post last dose; assay type: ADME, organism-based; design: time < 24 hr, dose 150 mg/kg, route oral
[5] = Intrinsic clearance in rat liver microsomes at 1 uM after 5 to 30 mins in presence of NADPH by LC-MS/MS analysis; assay type: ADME; settings: read-out: CLH
[6] = Tmax in Sprague-Dawley rat at 1 mg/kg, iv or 3 mg/kg, po administered in cassette mode; assay type: ADME, organism-based; settings: in vivo
[7] = Stability in human liver microsomes assessed as compound remaining at 5 uM measured after 1 hr in presence of alamethicin,uridine 5'-diphospho-glucuronic acid,glutathione,NADPH by capillary-HPLC/MS analysis (reference value: 96.3 %); assay type: ADME; settings: read-out: Stability
[8] = Stability in Sprague-Dawley rat blood assessed as compound remaining at 3 mg/kg, po administered in cassette mode measured after 1 hr by capillary-HPLC/MS analysis; assay type: ADME, organism-based; settings: whole blood, read-out: Stability
[9] = Oral bioavailability in Sprague-Dawley rat at 3 mg/kg administered in cassette mode measured up to 48 hrs; assay type: ADME, organism-based; settings: in vivo
[10] = Dose normalized Cmax in Sprague-Dawley rat at 1 mg/kg, iv or 3 mg/kg, po administered in cassette mode; assay type: ADME, organism-based; settings: in vivo
[11] = AUC (0 to 24 hrs) in Harlan nude mouse plasma xenografted with Rat1 cells expressing myr-p110alpha at 50 mg/kg, po qd administered for 8 days measured post last dose; assay type: ADME, organism-based; design: time < 24 hr, dose 50 mg/kg, route oral
[12] = Terminal half life in Sprague-Dawley rat at 3 mg/kg, po administered in cassette mode; assay type: ADME, organism-based; settings: in vivo, read-out: beta t1/2 (converted)
[13] = Stability in Sprague-Dawley rat blood assessed as compound remaining at 1 mg/kg, iv administered in cassette mode measured after 1 hr by capillary-HPLC/MS analysis; assay type: ADME, organism-based; settings: whole blood, read-out: Stability
[14] = Intrinsic clearance in human liver microsomes at 1 uM after 5 to 30 mins in presence of NADPH by LC-MS/MS analysis; assay type: ADME; settings: read-out: CLH
[15] = Antitumor activity in Rat1 cells expressing myr-p110alpha xenografted in Harlan nude mouse assessed as tumor regression at 150 mg/kg, po qd administered for 8 days measured post last dose; assay type: functional, Rattus norvegicus
[16] = Antitumor activity in Rat1 cells expressing myr-p110alpha xenografted in Harlan nude mouse assessed as tumor regression at 100 mg/kg, po qd administered for 8 days measured post last dose; assay type: functional, Rattus norvegicus
[17] = Stability in rat liver microsomes assessed as compound remaining at 5 uM measured immediately after compound addition in presence of alamethicin,uridine 5'-diphospho-glucuronic acid,glutathione,NADPH by capillary-HPLC/MS analysis (reference value: 96.3 %); assay type: ADME; settings: read-out: Stability
[18] = Volume of distribution at steady state in Sprague-Dawley rat at 1 mg/kg, iv or 3 mg/kg, po administered in cassette mode measured up to 48 hrs; assay type: ADME, organism-based; settings: in vivo, read-out: Vdss
[19] = Dose normalized AUC in Sprague-Dawley rat at 3 mg/kg, po administered in cassette mode measured up to 48 hrs; assay type: ADME, organism-based; settings: in vivo
[20] = Stability in rat liver microsomes assessed as compound remaining at 5 uM measured after 1 hr in presence of alamethicin,uridine 5'-diphospho-glucuronic acid,glutathione,NADPH by capillary-HPLC/MS analysis (reference value: 96.3 %); assay type: ADME; settings: read-out: Stability
[21] = species on record: Mus musculus; settings: Harlan, Rat1, 50 mg/kg; remark: listed apart in the source
[22] = Dose normalized AUC in Sprague-Dawley rat at 1 mg/kg, iv administered in cassette mode measured up to 48 hrs; assay type: ADME, organism-based; settings: in vivo
[23] = Intrinsic clearance in mouse liver microsomes at 1 uM after 5 to 30 mins in presence of NADPH by LC-MS/MS analysis; assay type: ADME; settings: read-out: CLH
[24] = AUC (0 to 24 hrs) in Harlan nude mouse plasma xenografted with Rat1 cells expressing myr-p110alpha at 100 mg/kg, po qd administered for 8 days measured post last dose; assay type: ADME, organism-based; design: dose 100 mg/kg, time < 24 hr, route oral
[25] = Stability in Sprague-Dawley rat blood assessed as compound remaining at 3 mg/kg, po administered in cassette mode measured after 0.5 hrs by capillary-HPLC/MS analysis; assay type: ADME, organism-based; settings: whole blood, read-out: Stability
[26] = Stability in Sprague-Dawley rat blood assessed as compound remaining at 1 mg/kg, iv administered in cassette mode measured after 0.5 hrs by capillary-HPLC/MS analysis; assay type: ADME, organism-based; settings: whole blood, read-out: Stability
[27] = Antitumor activity in Rat1 cells expressing myr-p110alpha xenografted in Harlan nude mouse assessed as tumor regression at 50 mg/kg, po qd administered for 8 days measured post last dose; assay type: functional, Rattus norvegicus
[28] = Stability in rat hepatocytes assessed as compound remaining at 1 uM measured after 40 to 60 mins by capillary-HPLC/MS analysis; assay type: ADME, cell-based, Hepatocyte; settings: read-out: Stability
[29] = Stability in human hepatocytes assessed as compound remaining at 1 uM measured after 40 to 60 mins by capillary-HPLC/MS analysis; assay type: ADME, cell-based, Hepatocyte; settings: read-out: Stability
[30] = Clearance in Sprague-Dawley rat at 1 mg/kg, iv administered in cassette mode measured up to 48 hrs; assay type: ADME, organism-based; settings: in vivo
[31] = Antitumor activity in Rat1 cells expressing myr-p110alpha xenografted in Harlan nude mouse assessed as tumor regression at 25 mg/kg, po qd administered for 8 days measured post last dose; assay type: functional, Rattus norvegicus
[32] = Drug level in human hepatocytes treated with 1 uM (2S)-N1-[4-methyl-5-[2-[2,2,2-trideuterio-1,1-bis(trideuteriomethyl)ethyl]pyrimidin-4-yl]thiazol-2-yl]pyrrolidine-1,2-dicarboxamide measured after 40 to 60 mins by capillary-HPLC/MS analysis; assay type: ADME, cell-based, Hepatocyte
[33] = Drug level in rat hepatocytes treated with 1 uM (2S)-N1-[4-methyl-5-[2-[2,2,2-trideuterio-1,1-bis(trideuteriomethyl)ethyl]pyrimidin-4-yl]thiazol-2-yl]pyrrolidine-1,2-dicarboxamide measured after 40 to 60 mins by capillary-HPLC/MS analysis; assay type: ADME, cell-based, Hepatocyte
[34] = as §1, with “measured immediately” for “measured”, “compound addition” for “1 hr”; assay type: ADME

Drug metabolism [1]	Drug metabolism [2]	microsomal CLint at 1 µM [5]	Tmax [6]	remaining at 1 h [8]	bioavailability [9]	Cmax/dose [10]	half-life [12]	remaining at 1 h [13]	microsomal CLint at 1 µM [14]	Vd [18]	AUC/dose [19]	AUC/dose [22]	microsomal CLint at 1 µM [23]	remaining at 0.5 h [25]	remaining at 0.5 h [26]	Drug metabolism [32]	Drug metabolism [33]	SMILES	other results
Metabolite_Detected	Metabolite_Detected	–	–	–	–	–	–	–	–	–	–	–	–	–	–	–	–	Cc1nc(NC(=O)N2CCC[C@H]2C(N)=O)sc1-c1ccnc(C(C)(C)CO)n1	–
–	–	22 µL/min/mg	18 min	91%	54%	270 nM	90 min	95%	19 µL/min/mg	1.4 L/kg	1490 nM·kg·h/mg	2750 nM·kg·h/mg	19 µL/min/mg	91%	95%	–	–	[2H]C([2H])([2H])C(c1nccc(-c2sc(NC(=O)N3CCC[C@H]3C(N)=O)nc2C)n1)(C([2H])([2H])[2H])C([2H])([2H])[2H]	Activity [27]: 63%; remaining at 1 µM [28]: 94.5%; remaining at 1 µM [29]: 96.2%; clearance [30]: 16 mL/min/kg; Activity [31]: 24%
–	–	–	–	–	–	–	–	–	–	–	–	–	–	–	–	Metabolite_Detected	Metabolite_Detected	[2H]C([2H])([2H])C(c1nccc(-c2sc(NC(=O)N3CCC[C@H]3C(N)=O)nc2C)n1)(C([2H])([2H])[2H])C([2H])([2H])O	–

Continued, molecule first:

SMILES	Drug metabolism [1]	Drug metabolism [2]	microsomal CLint at 1 µM [5]	Tmax [6]	remaining at 1 h [8]	bioavailability [9]	Cmax/dose [10]	half-life [12]	remaining at 1 h [13]	microsomal CLint at 1 µM [14]	Vd [18]	AUC/dose [19]	AUC/dose [22]	microsomal CLint at 1 µM [23]	remaining at 0.5 h [25]	remaining at 0.5 h [26]	Drug metabolism [32]	Drug metabolism [33]	other results
Cc1nc(NC(=O)N2CCC[C@H]2C(N)=O)sc1-c1ccnc(C(C)(C)C)n1	–	–	55 µL/min/mg	18 min	73%	26%	180 nM	72 min	86%	32 µL/min/mg	1.2 L/kg	527 nM·kg·h/mg	2010 nM·kg·h/mg	35 µL/min/mg	74%	90%	–	–	inhibition [3]: Active; AUC at 24 h [4]: 383 µM·h; remaining at 1 h, 5 µM [7]: 90.8%; AUC at 24 h [11]: 65 µM·h; Activity [15]: 51%; Activity [16]: 10%; remaining at 0 min, 5 µM [17]: 98.9%; remaining at 1 h, 5 µM [20]: 87.2%; inhibition [21]: Active; AUC at 24 h [24]: 134 µM·h
[2H]C([2H])([2H])C(c1nccc(-c2sc(NC(=O)N3CCC[C@H]3C(=O)O)nc2C)n1)(C([2H])([2H])[2H])C([2H])([2H])[2H]	–	–	–	–	–	–	–	–	–	–	–	–	–	–	–	–	Metabolite_Detected	Metabolite_Detected	–
Cc1nc(NC(=O)N2CCC[C@H]2C(=O)O)sc1-c1ccnc(C(C)(C)C)n1	Metabolite_Detected	Metabolite_Detected	–	–	–	–	–	–	–	–	–	–	–	–	–	–	–	–	Drug metabolism [34]: Metabolite_Detected
